{"source": "patent US6455504B1", "about": "“Pesticidal macrolides” (priority 1999, dated 2002)", "key": {"adult stable fly": {"test_system": "adult stable fly", "test": "In vivo Mouse/Adult Stable Fly (ASF) Assay", "set-up": "species or system adult stable fly fed on mice (Mus musculus)", "details": "mice dosed 100 mg/kg, orally or topically", "protocol": "On Study Day 0, six, thirty-gram, white laboratory mice (Mus musculus) (8-10 week old, ICR females, Harlan-Sprague-Dawley, Inc., Indianapolis, Ind.) per treatment were dosed with test article or solvent (90% ethyl oleate/10% DMSO), either orally or topically. On Study Day 1, two mice from each treatment were anesthetized with a 0.25 mL intramuscular injection of a combination of 1.0 mL ketamine (Fort Dodge, Ketaset®, ketamine HCl injection, 100 mg/mL) and 1.0 mL xylazine (Bayer, Rompun®, 20 mg/mL injectable) in 4.5 mL sterile water. The anesthetized mice were placed in the fly boxes containing 30 adult stable fly. The anesthetized mice were left in the boxes for up to 60 minutes and the flies allowed to obtain a blood meal undisturbed. After removal from the fly boxes, the unconscious mice were immediately euthanized with CO2. The fly boxes were exposed to a 12-our day/12-hour night cycle for the entire study period. The temperature in the assay room was 68-72° F. and the humidity was 50-60%. These procedures were repeated exactly on Study Days 2 and 3 with the remaining treated mice. Each day the number of dead flies was recorded and fly boxes discarded. Total percent fly mortality was determined for each treatment and compared to fly mortality of continuously fed ASF and ASF fed on solvent treated control mice."}, "[1]": {"test_system": "larval blowfly (Phormia regina)", "test": "In vitro Larval Blow Fly Assay", "set-up": "key to efficacy by visual inspection for larvae movement: A indicates mortality as indicated by absence of larvae movement; N indicates that larvae movement was observed", "details": "for efficacy by visual inspection for larvae movement: up to 48 hours", "protocol": "Filter inserts were placed individually in 96-well mictrotiter plates. Each insert was saturated with bovine serum combined with titrated levels of experimental compounds starting at 100 ppm. Approximately 30 larval blowfly (Phormia regina) were placed each well and the entire plate sealed. The plates were incubated for up to 48 hours incubation at approximately 25° C. and 75-85% humidity after which efficacy was determined by visual inspection of each well for larvae movement. The results of testing compounds 1 and 8 are as follows (both compounds were active above 5 ppm): […]"}, "[2]": {"test_system": "adult stable flies (Stomoxys calcitrans)", "test": "In vitro Adult Stable Fly Assay", "protocol": "Dental wicks were saturated with serum containing titrated levels of experimental compounds starting at 100 ppm. The dental wicks were placed in petri dishes along with 10 adult stable flies (Stomoxys calcitrans) previously chilled for easier handling. Percent mortality was determined after 24 and 48 hours incubation at approximately 25° C. and 75-85% humidity when compared to a dish containing a wick with control serum only."}, "[3]": {"test_system": "larval ticks (Amblyomma americannum)", "test": "In vitro Tick Larval Packet Test (LPT) Assay", "details": "24 hours", "protocol": "Titrated levels of experimental compounds were dissolved in a combination of olive oil and trichloroethylene and pipetted onto squares of laboratory filter paper. After allowing about an hour for the trichloroethylene to evaporate, the filter papers were folded in half and two sides secured with clamps, forming packets.\nApproximately, 100 larval ticks (Amblyomma americannum) were placed inside each packet and the remaining open side secured with a clamp. The packets were incubated for 24 hours at approximately 72° F. and 95% humidity. Each packet was opened separately and the number of live and dead larvae determined. Percent mortality was determined for each compound."}, "[4]": {"test_system": "Tobacco Budworm (Heliothis virescens) neonate larvae", "test": "Tobacco Budworm Neonate Drench Assay", "assay_type": "in vivo", "details": "rate 50 ppm, 27° C.", "protocol": "A. Tobacco Budworm (Heliothis virescens) Neonate Drench Assay.\nTo compare insecticidal activities of formula 1 compounds in neonate (<6 hr post-eclosion) larval Heliothis virescens, 1 μg/μL acetone solutions of each of the metabolites were first prepared. The acetone solutions were then diluted with Millipore H2O containing 0.025% Triton X-100 surfactant to yield treatments of 25 or 50 ppm. One milliliter of either concentration of each metabolite was then pipetted directly over and onto a 100-mm diameter #1 Whatman qualitative filter paper circle upon which 20 tobacco budworm neonate larvae had been gently placed. Each treated filter paper and its associated larvae was then placed in a 20 mm×100 mm disposable plastic petri plate. One-hour later, a 1 cm^3 portion of agar-based lepidoptera diet (modified Shorey diet, Southland Products, Lake Village, Ariz.) was placed into each plate as a larval food source. The petri plate were held at 27° C. for 24 hr and then percent larval mortality in each treatment was determined."}, "[5]": {"test_system": "Beet Armyworm (Spodoptera littoralis) larvae", "test": "Beet Armyworm Topical Assay", "assay_type": "in vivo", "details": "rate 1 ug/larva, 21° C.", "protocol": "B. Beet Armyworm (Spodoptera littoralis) Topical Assay.\nAn additional measure of the relative insecticidal activities of the formula 1 compounds was generated by using a 1 μg/μL methanol solution of each compound applied at 1 μL per larva of laboratory-reared Spodoptera littoralis, (mean wt of 43 mg). Each compound was applied along the dorsum of each of six larvae. Treated larvae were then held for five days at 21° C., 60% RH in six well plastic culture plates. Larvae were each supplied with a 1 cm^3 of agar-based lepidoptera diet for sustenance during the 5-day post-exposure interval. Percent mortality was determined at the end of a five day period."}}}
{"smiles": "CCC=CC1CCCC(OC2CCC(N(C)C)C(C)O2)C(C)C(=O)C2=CC3C(C=CC4C(O)C(OC5OC(C)C(OC)C(OC)C5OC)CC43)C2CC(=O)O1", "note": "(stereo not drawn) [Compound 8]", "values": [{"measurement": "% mortality Day 2", "setting": "adult stable fly; Study Day 2", "value": 46, "unit": "%"}, {"measurement": "% mortality Day 3", "setting": "adult stable fly; Study Day 3", "value": 76, "unit": "%"}, {"measurement": "% mortality Day 1", "setting": "adult stable fly; flies fed on Study Day 1", "value": 13, "unit": "%"}, {"measurement": "% mortality Total", "setting": "adult stable fly; total percent fly mortality", "value": 76, "unit": "%"}, {"measurement": "efficacy by visual inspection for larvae movement", "setting": "[1]; 0.15 ppm in bovine serum", "value": "N"}, {"measurement": "efficacy by visual inspection for larvae movement", "setting": "[1]; 0.31 ppm in bovine serum", "value": "N"}, {"measurement": "efficacy by visual inspection for larvae movement", "setting": "[1]; 0.62 ppm in bovine serum", "value": "N"}, {"measurement": "efficacy by visual inspection for larvae movement", "setting": "[1]; 1.25 ppm in bovine serum", "value": "N"}, {"measurement": "efficacy by visual inspection for larvae movement", "setting": "[1]; 2.5 ppm in bovine serum", "value": "N"}, {"measurement": "efficacy by visual inspection for larvae movement", "setting": "[1]; 5 ppm in bovine serum", "value": "A"}, {"measurement": "activity against larval blowfly", "setting": "[1]; above 5 ppm (titrated from 100 ppm)", "value": "active"}, {"measurement": "% mortality", "setting": "[2]; 0.1 ppm in serum, 24 hr", "value": 0, "unit": "%"}, {"measurement": "% mortality", "setting": "[2]; 0.1 ppm in serum, 48 hr", "value": 0, "unit": "%"}, {"measurement": "% mortality", "setting": "[2]; 0.5 ppm in serum, 24 hr", "value": 10, "unit": "%"}, {"measurement": "% mortality", "setting": "[2]; 0.5 ppm in serum, 48 hr", "value": 10, "unit": "%"}, {"measurement": "% mortality", "setting": "[2]; 1.0 ppm in serum, 24 hr", "value": 30, "unit": "%"}, {"measurement": "% mortality", "setting": "[2]; 1.0 ppm in serum, 48 hr", "value": 80, "unit": "%"}, {"measurement": "% mortality", "setting": "[2]; 5.0 ppm in serum, 24 hr", "value": 90, "unit": "%"}, {"measurement": "% mortality", "setting": "[2]; 5.0 ppm in serum, 48 hr", "value": 100, "unit": "%"}, {"measurement": "Percent mortality", "setting": "[3]; 0.05%/500 ppm", "value": 12.47, "unit": "%"}, {"measurement": "Percent mortality", "setting": "[3]; 0.1%/1000 ppm", "value": 69.87, "unit": "%"}, {"measurement": "Percent mortality", "setting": "[3]; 0.5%/5000 ppm", "value": 100, "unit": "%"}]}
{"smiles": "CCC=CC1CCCC(OC2CCC(N(C)C)C(C)O2)C(C)C(=O)C2=CC3C(C=C(C)C4CC(OC5OC(C)C(OC)C(OC)C5OC)CC43)C2CC(=O)O1", "note": "(stereo not drawn) [Compound 7]", "values": [{"measurement": "Tobacco Budworm Neonate Drench (24 hr) Mortality (%)", "setting": "[4]", "value": 100, "unit": "%"}]}
{"smiles": "CCC=CC1CCCC(OC2CCC(NC)C(C)O2)C(C)C(=O)C2=CC3C(C=CC4CC(OC5OC(C)C(OC)C(OC)C5OC)CC43)C2CC(=O)O1", "note": "(stereo not drawn) [Compound 3]", "values": [{"measurement": "Beet Armyworm Topical (120 hr) Mortality (%)", "setting": "[5]", "value": 100, "unit": "%"}]}
